Assay results reported in patent US20220184071A1, “GEPOTIDACIN FOR USE IN THE TREATMENT OF BACTERIAL URINARY TRACT INFECTIONS” (GlaxoSmithKline Intellectual Property Development Limited, priority 2019, published 2022).
≈ marks a conversion by molar mass, not a printed value. Entries after “also recorded” stand apart in the source; their conditions may differ. Where two headings read alike, the source gives them in different places.

Assays:
[1] = test system: S. saprophyticus; test: MIC by CLSI agar dilution, Example 1 Method 2; format: cell-based, Staphylococcus saprophyticus
Protocol: (§1) Antimicrobial activity was determined in a second study by […] using the CLSI recommended procedure in serial two-fold dilutions and the minimum inhibitory concentration (MIC) was determined as the lowest concentration of the compound that inhibited visible growth.
This study tested gepotidacin by CLSI agar dilution against 51 isolates of S. saprophyticus collected between 2005-2018.
Amikacin, ceftazidime, colistin, fosfomycin, levofloxacin, meropenem, nitrofurantoin and trimethoprim-sulfamethoxazole were included as comparators. MICs for and comparators were determined by agar dilution according CLSI methods.
(§2) MICs were determined according to CLSI agar dilution guidelines.

[2] = test system: N. gonorrhoeae; test: MIC by CLSI agar dilution, Example 1 Method 2; format: cell-based, Neisseria gonorrhoeae; conditions: n = 95
Protocol: as §1, §2

[3] = test system: Staphylococcus saprophyticus; test: MIC by CLSI broth microdilution in CAMHB and urine, Example 1 Method 3; format: cell-based; conditions: for Mean MIC: n = 6; for MIC: Staphylococcus saprophyticus
Protocol: Antimicrobial activity was determined by broth microdilution using the CLSI recommended procedure.
The compounds were tested in serial two-fold dilutions and the minimum inhibitory concentration (MIC) was determined as the lowest concentration of the compound that inhibited visible growth.
In particular, gepotidacin was tested against 6 strains of Staphylococcus saprophyticus from the collection of isolates at Laboratory Specialists, Inc., Westlake, Ohio.
Levofloxacin was included as the comparator in the study to determine the effect of urine on the in vitro activity of gepotidacin against Staphylococcus saprophyticus. MICs were determined by broth microdilution according CLSI methods.
The data shown in the table below are results from an in vitro study conducted with the same S. saprophyticus isolates described above, to determine the effect of urine on the in vitro activity of gepotidacin and levofloxacin against S. saprophyticus. Study strains were tested for MICs (minimum inhibitory concentrations) according to reference CLSI broth microdilution method using cation-adjusted Mueller Hinton Broth (CAMHB) and with the addition of 25%, 50% and 100% urine (not pH adjusted, pH 6.42) and 100% urine (pH adjusted, 7.31 and 8.07).

[4] = Saliva exposure, healthy volunteers; format: in vivo, human; conditions: 1500 mg oral single dose
Protocol: Antibiotic target site exposures play a key role as suboptimal levels may lead to therapeutic failure and resistance. Across multiple clinical studies, exposures to gepotidacin were assessed in plasma and other matrices, such as urine, saliva, epithelial lining fluid (ELF) and Alveolar Macrophages (AM).
Bronchoalveolar lavage samples were collected to determine gepotidacin exposures in ELF and AM following a single 1000 mg IV infusion over 2 hours to healthy subjects. Saliva exposure was assessed in healthy volunteers following 1500 mg oral single dose. Gepotidacin exposures in urine was assessed in women with acute uUTI following 1500 mg BID oral doses for 5 days.

[5] = test system: All Qualifying Uropathogens; test: Phase IIa microbiological response (micro-ITT population); format: in vivo, human; conditions: for Microbiological Failure, n (%) (95% Confidence Interval): n 8
[6] = test system: Providencia rettgeri; test: MIC, Example 5 Method 1; format: cell-based; conditions: at least one isolate tested
[7] = test system: Bacteroides fragilis; test: MIC by agar dilution, drug-resistant isolates; format: cell-based
Protocol: (§3) Antimicrobial activity was determined by agar dilution using the Clinical and Laboratory Standards Institute (CLSI) recommended procedure.
(§4) The compounds were tested in serial two-fold dilutions and the minimum inhibitory concentration (MIC) was determined as the lowest concentration of the compound that inhibited visible growth. Gepotidacin was tested against 333 gram-negative anaerobic and 203 gram-positive anaerobic isolates collected from clinical samples in North America and Europe from 2000 to 2017; the majority collected from 2013 to 2016.
(§5) Additional analysis was performed from the results of the study described in Method 1 above, to determine the in vitro activity of gepotidacin against gram-negative and gram-positive anaerobic organisms with resistance to ceftriaxone, clindamycin, imipenem, metronidazole, moxifloxacin and piperacillin/tazobactam.

[8] = test system: Bifidobacterium longum; test: MIC by agar dilution, drug-resistant isolates; format: cell-based; conditions: moxifloxacin R; 1 isolate
Protocol: as §3, §4, §5

[9] = test system: Eubacterium nodatum; test: MIC by agar dilution, drug-resistant isolates; format: cell-based; conditions: metronidazole R; 1 isolate
Protocol: as §3, §4, §5

[10] = test system: Fusobacterium necrophorum; test: MIC by agar dilution, drug-resistant isolates; format: cell-based; conditions: clindamycin R; 1 isolate
Protocol: as §3, §4, §5

[11] = test system: Fusobacterium, non-speciated; test: MIC by agar dilution, drug-resistant isolates; format: cell-based; conditions: 1 isolate
Protocol: as §3, §4, §5

[12] = test system: Lactobacillus gasseri; test: MIC by agar dilution, drug-resistant isolates; format: cell-based; conditions: clindamycin R; 2 isolates
Protocol: as §3, §4, §5

[13] = test system: Porphyromonas somerae; test: MIC by agar dilution, drug-resistant isolates; format: cell-based; conditions: clindamycin R; 1 isolate
Protocol: as §3, §4, §5

[14] = test system: Prevotella bivia; test: MIC by agar dilution, drug-resistant isolates; format: cell-based
Protocol: as §3, §4, §5

[15] = test system: Prevotella buccae; test: MIC by agar dilution, drug-resistant isolates; format: cell-based; conditions: 4 isolates
Protocol: as §3, §4, §5

[16] = test system: E. coli; test: Gepotidacin MIC90 for common uUTI pathogens (stated in conclusions); format: cell-based; conditions: Escherichia coli

## O=c1ccc2ncc(=O)n3c2n1C[C@H]3CN1CCC(NCc2cc3c(cn2)OCCC3)CC1 [gepotidacin, (2R)-2-({4-[(3,4-dihydro-2H-pyrano[2,3-c]pyridin-6-ylmethyl)amino]-1-piperidinyl}methyl)-1,2-dihydro-3H,8H-2a,5,8a-triazaacenaphthylene-3,8-dione]
[1]; 51 isolates
  % of isolates with MIC ≤0.125 mg/L: 100%
[1]; Staphylococcus saprophyticus, 51 isolates collected 2005-2018, read-out: MIC90
  MIC90: 0.125 µg/mL (≈ 0.279 µM)
[1]; Staphylococcus saprophyticus, 51 isolates, read-out: MICs for all S. saprophyticus
  MIC: ≤ 0.125 µg/mL
[1]; Staphylococcus saprophyticus, n = 51
  MIC50: ≤ 0.06 µg/mL
[1]; n = 51
  MIC90: 0.125 µg/mL (≈ 0.279 µM)
  Number of Isolates at Gepotidacin MIC ≤0.25 mg/L: 51
[2]; Neisseria gonorrhoeae
  MIC50: 0.25 µg/mL (≈ 0.557 µM)
  MIC90: 1 µg/mL (≈ 2.23 µM)
[2]
  Number of Isolates at Gepotidacin MIC 0.5 mg/L: 6
  Number of Isolates at Gepotidacin MIC 1 mg/L: 6
  Number of Isolates at Gepotidacin MIC 2 mg/L: 4
  Number of Isolates at Gepotidacin MIC ≤0.25 mg/L: 79
[3]; 3 isolates of methicillin-resistant S. saprophyticus
  MIC range: 0.06 to 0.5 µg/mL
[3]; 3 isolates of methicillin-susceptible S. saprophyticus
  MIC range: 0.03 to 0.5 µg/mL
[3]; 25% Urine (pH 7.09) vs CAMHB
  Mean Dilution Difference: 0.00
  Mean difference: 0.00
  N(%) ± 1 dilution: 6 (100%)
  N(%) ± 2 dilution: 6 (100%)
[3]; 25% Urine (pH 7.09)
  Mean MIC: 0.11 µg/mL
[3]; 50% Urine (6.99) vs CAMHB
  Mean Dilution Difference: 0.00
  Mean difference: 0.00
  N(%) ± 1 dilution: 6 (100%)
  N(%) ± 2 dilution: 6 (100%)
[3]; 50% Urine (6.99)
  Mean MIC: 0.11 µg/mL
[3]; 100% Urine (pH 6.42) vs CAMHB
  Mean Dilution Difference: 1.18
  Mean difference: 0.14
  N(%) ± 1 dilution: 4 (66.7%)
  N(%) ± 2 dilution: 6 (100%)
[3]; 100% Urine (pH 6.42)
  Mean MIC: 0.24 µg/mL
[3]; 100% Urine (pH 7.31) vs CAMHB
  Mean Dilution Difference: 1.54
  Mean difference: 0.21
  N(%) ± 1 dilution: 3 (50%)
  N(%) ± 2 dilution: 4 (66.7%)
[3]; 100% Urine (pH 7.31)
  Mean MIC: 0.31 µg/mL
[3]; 100% Urine (pH 8.07) vs CAMHB
  Mean Dilution Difference: 1.36
  Mean difference: 0.17
  N(%) ± 1 dilution: 3 (50%)
  N(%) ± 2 dilution: 5 (83.3%)
[3]; 100% Urine (pH 8.07)
  Mean MIC: 0.28 µg/mL
[3]; CAMHB (ref. method, pH 7.2)
  Mean MIC: 0.11 µg/mL
[3]; read-out: MICs, heading: MICs, methicillin-susceptible and methicillin-resistant isolates tested (conclusion)
  MIC: ≤ 0.5 µg/mL
[3]; at least one strain of methicillin-susceptible or methicillin-resistant S. saprophyticus, read-out: MIC
  MIC: ≤ 0.5 µg/mL
[3]; each of the methicillin-resistant S. saprophyticus
  MIC fold lower than levofloxacin: 4 fold
[3]; gepotidacin in 100% urine (conclusion)
  mean dilution differences (range): 1.18-1.54
[3]; methicillin-susceptible S. saprophyticus
  MIC fold lower than levofloxacin: 8-32 fold
[4]
  ratio of saliva AUC to unbound plasma AUC: close to unity
[5]; Follow-up Visit
  Microbiological Failure, n (%) (95% Confidence Interval): 2 (25) (3-65)
[5]; TOC Visit
  Microbiological Failure, n (%) (95% Confidence Interval): 1 (13) (<1-53)
[5]; baseline uropathogen vs same uropathogen at subsequent visits
  reduction in susceptibility to gepotidacin (≥4-fold increase in MIC): no evidence of reduction in susceptibility; also recorded: No participants developed post-treatment uropathogens with reduced susceptibility
[6]
  MIC: 8 µg/mL (≈ 17.8 µM)
[7]; ceftriaxone R, 35 isolates
  Gepotidacin MIC range: 0.25 to 32 µg/mL
[7]; clindamycin R, 22 isolates
  Gepotidacin MIC range: ≤0.015 to 32 µg/mL
[7]; imipenem R, 1 isolate
  Gepotidacin MIC range: 0.5 µg/mL
[7]; moxifloxacin R, 19 isolates
  Gepotidacin MIC range: 0.25 to 32 µg/mL
[7]; pip/tazo R, 2 isolates
  Gepotidacin MIC range: 0.5 to 4 µg/mL
[8]
  Gepotidacin MIC range: 0.12 µg/mL
[9]
  Gepotidacin MIC range: 0.125 µg/mL
[10]
  Gepotidacin MIC range: 0.25 µg/mL
[11]; ceftriaxone R
  Gepotidacin MIC range: 2 µg/mL
[11]; clindamycin R
  Gepotidacin MIC range: 2 µg/mL
[12]
  Gepotidacin MIC range: 0.5 to 1 µg/mL
[13]
  Gepotidacin MIC range: 0.06 µg/mL
[14]; ceftriaxone R, 1 isolate
  Gepotidacin MIC range: 1 µg/mL
[14]; clindamycin R, 2 isolates
  Gepotidacin MIC range: 0.5 to 4 µg/mL
[14]; moxifloxacin R, 2 isolates
  Gepotidacin MIC range: 4 µg/mL
[15]; ceftriaxone R
  Gepotidacin MIC range: 0.25 to 2 µg/mL
[15]; clindamycin R
  Gepotidacin MIC range: 0.25 to 4 µg/mL
[16]
  MIC90: 4 µg/mL (≈ 8.92 µM)
